Read-outs that look alike come from different tables or passages of the source. Values belong to the compound of their own block, whether it stands above or below them. Peptide text beside a SMILES is read from it.
Key:
U937 cells [1] = assay: HK-I over-expression protection against apoptotic cell death in double-transfected cells; assay type: cell-based, human; conditions: U937 or T-Rex 293 cells stably over-expressing HK-I, mVDAC1-GFP constructs
Description: U937 cells were transfected with pcDNA3.1-HisA or pcDNA3.1-HisA-HK-I (neomycin resistance; provided by Dr. J. E. Wilson, University of Michigan) by electroporation, and grown in complete RPMI 1640 with neomycin ([…]). After 12 days, the selected cells were transfected with pEGFP, pEGFP-mVDAC1 or pEGFP-E72Q-mVDAC1 and were grown in the presence of neomycin ([…]). The viability of double-transfected cells was analyzed during 48 to 76 hr.
The effect of HK-I over-expression on apoptotic cell death of the GFP-tagged version of native and E72Q-mVDAC1 over-expressing cells was examined.
Since VDAC1 overexpression induces cell death, U937 cells (FIG. 4A, 4B) or T-Rex™ 293 human embryonic kidney cells (FIG. 4B) were first transformed to stably over-express HK-I and then transfected with native, E65Q, E72Q, K73L, D77N, N75A, or G67A mutated mVDAC1-GFP. […] This β-loop includes amino acid residues T64 to about N78.

B-16 = assay: Apoptosis induction by various stimuli (acridine orange/ethidium bromide staining); assay type: cell-based, mouse
Description: (§1) Cells were plated at a density of 5.4×10^4 cells/cm^2 in 24-well plates, washed once with PBS and placed in serum-free medium. Cells were then incubated with or without RuR or Ru360. Cells were also treated with […] staurosporine (STS) to induce apoptosis and analyzed for viability 3, 5 and 7 hrs after STS addition. Treatments with curcumin (120 μM) or As2O3 (20 μM) were carried out for 48 hrs.
(§2) To determine cell viability, cells were stained with 100 μg/ml acridine orange (AcOr) and 100 μg/ml ethidium bromide (EtBr) in PBS. Cells were centrifuged at 1500×g for 5 min at room temperature and resuspended in 25 μl of complete medium, to which 2 μl of AcOr/EtBr solution were added. The cells were then visualized by fluorescence microscopy (Olympus IX51) and images were recorded on an Olympus DP70 camera, using a SWB filter.
(§3) Cells were incubated with curcumin (120 μM) or As2O3 (20 μM) for 48 hrs, or with STS (1.25 μM) for 7 hrs. Cell viability was analyzed by acridine orange/ethidium Bromide staining. In each independent experiment, approximately 250 cells were counted for each treatment, in which early and late apoptotic cells were also counted. The data shown in table 3 is the mean±S.E.M. (n=3).

Du-145 = assay: as above; assay type: cell-based, human
Description: as §1, §2, §3

HeLa = assay: as above; assay type: cell-based, human
Description: as §1, §2, §3

Panc = assay: as above; assay type: cell-based, human
Description: as §1, §2, §3

[2] = system: PBMCs isolated from CLL patients; assay type: cell-based, human
Description: Peripheral blood mononuclear cells (PBMCs) were isolated from venous blood of patients with chronic lymphocytic leukemia (CLL) by Ficoll-Paque PLUS (GE Healthcare, Israel) density gradient centrifugation. After informed consent, venous blood (10 ml) was drawn from CLL patients satisfying diagnostic criteria for CLL or from normal adult donors. Blood was collected into heparin tubes and diluted 1:1 with balance solution (composed of two stock solutions, A and B, in 1:9 ratio, respectively. Solution A contained: D-glucose 1%, CaCl2 5×10^−5M, MgCl2 9.8×10^−4M, KCl 5.4×10^−3M, Tris 0.145M, pH 7.6. Solution B contained NaCl 0.14M. The balance solution was prepared freshly every week. The diluted blood sample was subsequently carefully layered on Ficoll-Paque Plus (10 ml of diluted blood: 15 ml Ficoll) in 50 ml conical tubes. Tubes were centrifuged at 400×g (with minimal acceleration and deceleration) for 40 minutes at 18-20° C. The mononuclear cells fine layer was transferred to a new centrifuge tube. Cells were washed 3 times with balance solution and re-suspended in a culture medium appropriate to the application.
(§4) PBMCs (2×10^6 cells/sample) from CLL patients and healthy donors were treated with various concentrations of the peptide Antp-LP4-trp for 90 minutes. Cells were then gently washed once with PBS and stained with propidium iodide (PI) by adding 2.5 μl (1 mg/ml) and immediately analyzed for cell death. The level of cell death, reflected by the percentage of PI-positive cells, was determined by a flow cytometry analysis.
(§5) Preipheral blood mononuclear cells (PMBC) isolated from pateints having chronic lymphocytic leukemia (CLL) and MEC-1 cell lines (human chronic B-cell leukemia) were incubated for 90 min with Peptide N-ANTP (SEQ ID NO:73) at concentrations of 10-40 μM. Cell death was measured by PI staning and FACS analysis.
In ex vivo experiments, peripheral blood mononuclear cells (PBMCs) isolated from healthy individuals or CLL patients were incubated for 90 min with the indicated concentration of the ANTP-LP4-trp peptide. Cell death was assayed by PI staining and FACS analysis (healthy donors, n=34; CLL donors, n=39).

MEC-1 cell line = assay type: cell-based, human
Description: as §4, §5

U937 cells [3] = assay: Apoptotic cell death of U937 cells transfected with native or mutated mVDAC1, with/without RuR (acridine orange/ethidium bromide staining); assay type: cell-based, human
Description: Logarithmically-growing U937 cells were resuspended in RPMI 1640 supplemented with 10% FCS, 100 U/ml penicillin and […] streptomycin at a concentration of 2.5×10^7 cells/ml. Cells were transfected to express rat or murine VDAC1 using the vectors pEGFP, pEGFP-VDAC1, pEGFP-E72Q-mVDAC1, pE-mVDAC1 or pE-E72Q-mVDAC1. Transfection of the U937 cells was performed by electroporation with a single pulse from a Bio-Rad micropulser II with a capacitance extender unit (200 V, […]). Cells were incubated on ice for 10 min before and after transfection, and then resuspended in 20 ml of RPMI 1640 supplemented with 10% FCS, 1 mM l-glutamine, 100 U/ml penicillin and […] streptomycin. […] GFP-positive cells were viewed under a microscope using a blue filter.
as §1
Fifty six (56) hr after transfection, cells were exposed for 20 hr to RuR (1 μM) and cell viability was analyzed using acridine orange/ethidium bromide staining. In each independent experiment, approximately 250 cells were counted for each including early and late apoptotic cells. Data shown in FIG. 5 and Table 2 are the mean±SEM (n=3).

Compound: E65Q-mVDAC1: VDAC1 polypeptide variant E65Q [Peptide E65Q-mVDAC1]
protective effect of HK-I over-expression against cell death induced by mVDAC1 over-expression (U937 cells [1]): no protective effect

Compound: CN[C@@H]1C[C@H]2O[C@@](C)([C@@H]1OC)n1c3ccccc3c3c4c(c5c6ccccc6n2c5c31)C(=O)NC4 [STS, staurosporine]
Apoptotic cell death, % of control (B-16; STS 1.25 μM, 7 hrs): 63.12 ± 0.71 % of control
Apoptotic cell death, % of control (Du-145; STS 1.25 μM, 7 hrs): 13.57 ± 4.73 % of control
Apoptotic cell death, % of control (HeLa; STS 1.25 μM, 7 hrs): 72.37 ± 1.30 % of control
Apoptotic cell death, % of control (Panc; STS 1.25 μM, 7 hrs): 84.90 ± 2.06 % of control

Compound: CC(C)C[C@H](NC(=O)[C@H](CC(N)=O)NC(=O)[C@@H](NC(=O)[C@H](C)NC(=O)[C@@H](NC(=O)[C@H](CCC(=O)O)NC(=O)[C@H](CC(C)C)NC(=O)[C@H](CCCCN)NC(=O)[C@H](CCCCN)NC(=O)[C@H](CCC(=O)O)NC(=O)[C@H](Cc1c[nH]c2ccccc12)NC(=O)[C@@H](NC(=O)[C@H](Cc1c[nH]c2ccccc12)NC(=O)[C@H](CO)NC(=O)CNC(=O)CNC(=O)[C@H](CCCNC(=N)N)NC(=O)[C@H](CCCNC(=N)N)NC(=O)[C@H](CCCNC(=N)N)NC(=O)[C@H](CCC(N)=O)NC(=O)[C@H](CCCNC(=N)N)NC(=O)[C@H](CCCNC(=N)N)NC(=O)[C@H](CCCCN)NC(=O)[C@H](CCCCN)NC(=O)[C@@H](N)CCCNC(=N)N)[C@@H](C)O)[C@@H](C)O)C(C)C)C(=O)N[C@@H](C)C(=O)N[C@@H](Cc1c[nH]c2ccccc12)C(=O)N[C@H](C(=O)N[C@@H](C)C(=O)NCC(=O)N[C@@H](CC(N)=O)C(=O)N[C@@H](CO)C(=O)N[C@@H](CC(N)=O)C(=O)N[C@@H](CCCCN)C(=O)N[C@@H](Cc1c[nH]c2ccccc12)C(=O)N[C@H](C(=O)N[C@@H](Cc1c[nH]c2ccccc12)C(=O)N[C@@H](CCCCN)C(=O)O)[C@@H](C)O)[C@@H](C)O [TAT-LP4-trp] (H-RKKRRQRRRGGSWTWEKKLETAVNLAWTAGNSNKWTWK-OH; N-terminus and C-terminus assumed)
IC50 ([2]; peptide concentration required to induce apoptosis in 50% of the cells, PBMC from CLL patients, read-out: IC50 μM CLL): 3.5 to 4 µM
IC50 (MEC-1 cell line; peptide concentration required to induce apoptosis in 50% of the cells, MEC-1, read-out: IC50 μM MEC-1): 6 to 7 µM

Compound: O=[As]O[As]=O (centres unmarked) [As2O3]
Apoptotic cell death, % of control (B-16; As2O3 20 μM, 48 hrs): 15.0 ± 1.99 % of control
Apoptotic cell death, % of control (Du-145; As2O3 20 μM, 48 hrs): 6.0 ± 0.80 % of control
Apoptotic cell death, % of control (HeLa; As2O3 20 μM, 48 hrs): 24.67 ± 2.65 % of control
Apoptotic cell death, % of control (Panc; As2O3 20 μM, 48 hrs): 67.20 ± 3.87 % of control

Compound: G67A-mVDAC1: VDAC1 polypeptide variant G67A [Peptide G67A-mVDAC1]
protective effect of HK-I over-expression against cell death induced by mVDAC1 over-expression (U937 cells [1]): dramatically reduced

Compound: E72Q-mVDAC1: VDAC1 polypeptide variant E72Q [Peptide E72Q-mVDAC1]
protective effect of HK-I over-expression against cell death induced by mVDAC1 over-expression (U937 cells [1]): no protective effect

Compound: N75A-mVDAC1: VDAC1 polypeptide variant N75A [Peptide N75A-mVDAC1]
protective effect of HK-I over-expression against cell death induced by mVDAC1 over-expression (U937 cells [1]): dramatically reduced

Compound: D77N-mVDAC1: VDAC1 polypeptide variant D77N [Peptide D77N-mVDAC1]
protective effect of HK-I over-expression against cell death induced by mVDAC1 over-expression (U937 cells [1]): no protective effect

IC50 (MEC-1 cell line): 2.4 to 3 µM
Compound: CC[C@H](C)[C@H](NC(=O)[C@H](C)NC(=O)[C@@H](N)Cc1c[nH]cn1)C(=O)N[C@@H](Cc1ccc(O)cc1)C(=O)N1CCC[C@H]1C(=O)N[C@@H](CCCNC(=N)N)C(=O)N[C@@H](Cc1c[nH]cn1)C(=O)N[C@@H](CO)C(=O)N[C@@H](Cc1c[nH]c2ccccc12)C(=O)N[C@H](C(=O)N[C@@H](Cc1c[nH]c2ccccc12)C(=O)N[C@@H](CCC(=O)O)C(=O)N[C@@H](CCCCN)C(=O)N[C@@H](CCCCN)C(=O)N[C@@H](CC(C)C)C(=O)N[C@@H](CCC(=O)O)C(=O)N[C@H](C(=O)N[C@@H](C)C(=O)N[C@H](C(=O)N[C@@H](CC(N)=O)C(=O)N[C@@H](CC(C)C)C(=O)N[C@@H](C)C(=O)N[C@@H](Cc1c[nH]c2ccccc12)C(=O)N[C@H](C(=O)N[C@@H](C)C(=O)NCC(=O)N[C@@H](CC(N)=O)C(=O)N[C@@H](CO)C(=O)N[C@@H](CC(N)=O)C(=O)N[C@@H](CCCCN)C(=O)N[C@@H](Cc1c[nH]c2ccccc12)C(=O)N[C@H](C(=O)N[C@@H](Cc1c[nH]c2ccccc12)C(=O)N[C@@H](CCCCN)C(=O)O)[C@@H](C)O)[C@@H](C)O)C(C)C)[C@@H](C)O)[C@@H](C)O [Tf-LP4-trp]
IC50 [2]: 1.5 to 2 µM

Compound: K73L-mVDAC1: VDAC1 polypeptide variant K73L [Peptide K73L-mVDAC1]
protective effect of HK-I over-expression against cell death induced by mVDAC1 over-expression (U937 cells [1]): no protective effect

Compound: E202Q-mVDAC1: VDAC1 polypeptide variant E202Q [Peptide E202Q-mVDAC1]
protective effect of HK-I over-expression against cell death induced by mVDAC1 over-expression (U937 cells [1]): no protective effect

Compound: E72Q-mVDAC-GFP: GFP-tagged E72Q mVDAC1 variant
% of protection (U937 cells [3]; protection by RuR (1 μM) against apoptosis of transfected U937 cells): 0%
Apoptotic cells, % −RuR (U937 cells [3]; transfected U937 cells, without RuR, mean±SEM (n=3)): 71.9 ± 4.7%
Apoptotic cells, % +RuR (U937 cells [3]; transfected U937 cells, 56 hr after transfection exposed 20 hr to RuR (1 μM), mean±SEM (n=3)): 71.6 ± 4.4%

Compound: COc1cc(/C=C/C(=O)CC(=O)/C=C/c2ccc(O)c(OC)c2)ccc1O [Curcumin, curcumin]
Apoptotic cell death, % of control (B-16; curcumin 120 μM, 48 hrs): 37.47 ± 2.20 % of control
Apoptotic cell death, % of control (Du-145; curcumin 120 μM, 48 hrs): 8.93 ± 0.47 % of control
Apoptotic cell death, % of control (HeLa; curcumin 120 μM, 48 hrs): 36.2 ± 0.70 % of control
Apoptotic cell death, % of control (Panc; curcumin 120 μM, 48 hrs): 70.77 ± 4.31 % of control
